Measured values from ChEMBL document CHEMBL1201862, “PubChem BioAssay data set” (2004).
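Briefly, cells in 96-well plates were exposed to five compound concentrations for 48 h, and endpoints were estimated by linear interpolation. GI50 = concentration required for 50% inhibition of growth.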 The source made the active and inactive calls. Cut-off read from the data, not from the text of the source: active = GI50 up to about 1.1 µM and inactive = higher.

Legend:
Assay in all cases: NCI-60 cell line screen, 48 h
A498 = tested on: A498
A549 = tested on: A549
COLO 205 = tested on: COLO 205
HOP-62 = tested on: HOP-62
HOP-92 = tested on: HOP-92
IGROV-1 = tested on: IGROV-1
K562 = tested on: K562
KM12 = tested on: KM12
MCF7 = tested on: MCF7
MOLT-4 = tested on: MOLT-4
NCI-H226 = tested on: NCI-H226
NCI-H522 = tested on: NCI-H522
OVCAR-3 = tested on: OVCAR-3
OVCAR-5 = tested on: OVCAR-5
OVCAR-8 = tested on: OVCAR-8
SK-OV-3 = tested on: SK-OV-3
SN12C = tested on: SN12C
SNB-19 = tested on: SNB-19
SW-620 = tested on: SW-620
U-251 = tested on: U-251

Row | SMILES | GI50 (A498) | GI50 (A549) | GI50 (COLO 205) | GI50 (HOP-62) | GI50 (HOP-92) | GI50 (IGROV-1) | GI50 (K562) | GI50 (KM12) | GI50 (MCF7) | GI50 (MOLT-4) | GI50 (NCI-H226) | GI50 (NCI-H522) | GI50 (OVCAR-3) | GI50 (OVCAR-5) | GI50 (OVCAR-8) | GI50 (SK-OV-3) | GI50 (SN12C) | GI50 (SNB-19) | GI50 (SW-620) | GI50 (U-251)
1 | Oc1cc(Cl)cc2cc(Br)cnc12 | 27.7 µM (inactive) | 3.27 µM (inactive) | 41.6 µM (inactive) | 3.4 µM (inactive) | 4.69 µM (inactive) | 2.92 µM (inactive) | 1.69 µM (inactive) | 4.69 µM (inactive) | 3.1 µM (inactive) | 2.04 µM (inactive) | 22.6 µM (inactive) | 2.74 µM (inactive) | 1.52 µM (inactive) | 8.95 µM (inactive) | 2.3 µM (inactive) | > 59.8 µM (inactive) | 2.23 µM (inactive) | 4.1 µM (inactive) | 3.96 µM (inactive) | 2.07 µM (inactive)
2 | O=C1OC(c2ccccc2Br)=N/C1=C/c1ccccc1 | > 100 µM (inactive) | 29.6 µM (inactive) | > 10 µM (inactive) | 21.5 µM (inactive) | > 10 µM (inactive) | 39.4 µM (inactive) | 63 µM (inactive) | 19 µM (inactive) | 57.1 µM (inactive) | 48.8 µM (inactive) | 18.8 µM (inactive) | 26 µM (inactive) | 14.1 µM (inactive) | 40.2 µM (inactive) | 21.6 µM (inactive) | 63.7 µM (inactive) | – | 24.9 µM (inactive) | 42.9 µM (inactive) | 26.6 µM (inactive)
3 | COc1ccc(C2c3cc4c(cc3OC(N3CCOCC3)C2C)OCO4)cc1OC (stereo not given) | 6.46 µM (inactive) | 7.82 µM (inactive) | 4.76 µM (inactive) | 12 µM (inactive) | 8.95 µM (inactive) | 7.64 µM (inactive) | 4.31 µM (inactive) | 4.46 µM (inactive) | 4.97 µM (inactive) | 4.48 µM (inactive) | 6.9 µM (inactive) | 5.51 µM (inactive) | 3.3 µM (inactive) | 48.6 µM (inactive) | 20.4 µM (inactive) | 5.24 µM (inactive) | 22.6 µM (inactive) | 7.18 µM (inactive) | 4.74 µM (inactive) | 5.52 µM (inactive)
4 | CC/C=C/C[C@H](O[Si](C)(C)C(C)(C)C)[C@H]1C[C@H]2O[C@H]([C@@H](O)C#C[Si](C)(C)C)C[C@H]2O1 | 17.9 µM (inactive) | 10.1 µM (inactive) | 13.5 µM (inactive) | 16.1 µM (inactive) | 10.4 µM (inactive) | 14.3 µM (inactive) | 13.9 µM (inactive) | 17.9 µM (inactive) | 6.92 µM (inactive) | 12.6 µM (inactive) | 6.68 µM (inactive) | 3.64 µM (inactive) | 14.8 µM (inactive) | 14.1 µM (inactive) | 14.8 µM (inactive) | 15.5 µM (inactive) | 5.36 µM (inactive) | 13.8 µM (inactive) | 16.6 µM (inactive) | 15.5 µM (inactive)
5 | CC12CCC3C(CCC4=CC(O)CCC43C=O)C1(O)CCC2c1ccc(=O)oc1 (stereo not given) | 0.00802 µM (active) | – | 0.0169 µM (active) | 0.05 µM (active) | 0.0164 µM (active) | 0.00984 µM (active) | 0.05 µM (active) | 0.0129 µM (active) | 0.05 µM (active) | – | 0.0303 µM (active) | 0.0015 µM (active) | 0.00368 µM (active) | 0.0693 µM (active) | 0.00622 µM (active) | 0.0113 µM (active) | 0.00438 µM (active) | 0.00622 µM (active) | 0.05 µM (active) | 0.00556 µM (active)
6 | O=C(/C=C/c1ccccc1)Oc1cccc(O)c1 | > 100 µM (inactive) | 46 µM (inactive) | 55 µM (inactive) | 53.6 µM (inactive) | > 100 µM (inactive) | 17.3 µM (inactive) | – | 19.1 µM (inactive) | 38.7 µM (inactive) | 6.03 µM (inactive) | > 100 µM (inactive) | 6.81 µM (inactive) | 73.8 µM (inactive) | 30.3 µM (inactive) | 44.3 µM (inactive) | > 100 µM (inactive) | 44.1 µM (inactive) | 20.2 µM (inactive) | 18.3 µM (inactive) | 34.3 µM (inactive)
7 | C=C1N(C)c2ccc(S(=O)(=O)c3ccc4c(c3)C(C)(C)C(=C)N4C)cc2C1(C)C | 37.2 µM (inactive) | 28.6 µM (inactive) | 16.3 µM (inactive) | 56.1 µM (inactive) | 3.85 µM (inactive) | 27.3 µM (inactive) | – | 45.5 µM (inactive) | 29 µM (inactive) | 18 µM (inactive) | > 100 µM (inactive) | 20.7 µM (inactive) | 25.4 µM (inactive) | 83.9 µM (inactive) | 27.1 µM (inactive) | > 100 µM (inactive) | 42.2 µM (inactive) | 39.2 µM (inactive) | 45 µM (inactive) | 31.5 µM (inactive)
8 | Nc1nc(Cl)cc(NCC2(CO)CCC(OCc3ccccc3)C2)n1 (stereo not given) | 8.24 µM (inactive) | 15.2 µM (inactive) | 21.1 µM (inactive) | 25.4 µM (inactive) | 3.57 µM (inactive) | 18.2 µM (inactive) | 7.26 µM (inactive) | 21 µM (inactive) | 1.59 µM (inactive) | 4.99 µM (inactive) | 14.8 µM (inactive) | 1.31 µM (inactive) | 30.5 µM (inactive) | 37.7 µM (inactive) | 22.1 µM (inactive) | 11.1 µM (inactive) | 8.89 µM (inactive) | 23.1 µM (inactive) | 60 µM (inactive) | 29.9 µM (inactive)
9 | Cc1nc2ccccc2cc1C[N+]12CN3CN(CN(C3)C1)C2 | 22.8 µM (inactive) | 30.8 µM (inactive) | 14.1 µM (inactive) | 24.5 µM (inactive) | 45.2 µM (inactive) | 31.4 µM (inactive) | 29.2 µM (inactive) | 20.9 µM (inactive) | 4.29 µM (inactive) | 34 µM (inactive) | 23.6 µM (inactive) | 18.9 µM (inactive) | 28.1 µM (inactive) | 23.8 µM (inactive) | 30.3 µM (inactive) | 32.7 µM (inactive) | 18 µM (inactive) | 23.8 µM (inactive) | 5.35 µM (inactive) | 12.1 µM (inactive)
10 | COc1ccc(-c2oc3cc(-c4cc5oc(-c6ccc(OC)cc6)c(-c6ccc(OC)cc6)c5cc4OC)c(OC)cc3c2-c2ccc(OC)cc2)cc1 | > 100 µM (inactive) | > 100 µM (inactive) | > 100 µM (inactive) | > 100 µM (inactive) | > 100 µM (inactive) | > 100 µM (inactive) | > 100 µM (inactive) | > 100 µM (inactive) | > 100 µM (inactive) | > 100 µM (inactive) | > 100 µM (inactive) | > 100 µM (inactive) | > 100 µM (inactive) | > 100 µM (inactive) | > 100 µM (inactive) | > 100 µM (inactive) | > 100 µM (inactive) | > 100 µM (inactive) | > 100 µM (inactive) | > 100 µM (inactive)
